Holding throughout (test): In vitro antimicrobial activity, MIC by broth microdilution (CLSI)
Type in all cases: cell-based

The test system of test [1] is K. pneumoniae SR01358. Particulars: Klebsiella pneumoniae. The procedure:
(§1) Compound (I) of the invention was evaluated for in vitro antimicrobial activity thereof.
(§2) Measurement of Minimum Inhibitory Concentration (MIC: μg/mL) was conducted according to CLSI (Clinical and Laboratory Standards Institute) method, and the amount of bacteria for inoculation was 5×10^5 cfu/mL, and cation-adjusted Iso-Sensitest broth containing human Apo-transferrin was used as a test medium, and the experiment was conducted using broth microdilution method. The bacteria used are listed below.

Test [2] relates to A. baumannii JMI7. The following applies: Acinetobacter baumannii. The procedure:
as §1, §2

The subject of test [3] is E. Coli JMI1890. The following applies: Escherichia coli, read-out: Minimum Inhibitory Concentration (MIC) E. Coli JMI:1890. The procedure:
as §1, §2

Test [4] concerns A. baumannii JMI2346. Particulars: Acinetobacter baumannii. The procedure: as §1, §2
The mark [5] stands for this setting: SR01358, KPC-2, ESBL and KPC-type carbapenemase producing strain, 5×10^5 cfu/mL, cation-adjusted Iso-Sensitest broth containing human Apo-transferrin, read-out: Minimum Inhibitory Concentration (MIC) K. pneumoniae SR01358.
The mark [6] stands for this setting: JMI7, PER-1, OXA-23, 51, ESBL and OXA-type carbapenemase producing strain, 5×10^5 cfu/mL, cation-adjusted Iso-Sensitest broth containing human Apo-transferrin, read-out: Minimum Inhibitory Concentration (MIC) A. baumannii JMI:7.
Setting [7] is: PER-1, TEM-1, ESBL producing strain, 5×10^5 cfu/mL, cation-adjusted Iso-Sensitest broth containing human Apo-transferrin.
Where [8] appears, read: JMI2346, OXA-51, TEM, ESBL and OXA-type carbapenemase producing strain, 5×10^5 cfu/mL, cation-adjusted Iso-Sensitest broth containing human Apo-transferrin, read-out: Minimum Inhibitory Concentration (MIC) A. baumannii JMI:2346.

Converted amounts (≈) assume the structure as drawn. Read-outs that look alike come from different tables or passages of the source.

For the compound `CC[N+](CC)(CCNC(=O)c1ccc(O)c(O)c1Cl)CC1=C(C(=O)O)N2C(=O)[C@@H](NC(=O)/C(=N\OC(C)(C)C(=O)[O-])c3csc(N)n3)[C@H]2S[C@H]1C` [Compound I-37], the MIC in test [1] (setting [5]) turned out to be 0.125 µg/mL (≈ 0.163 µM); in test [2] (setting [6]) it was 1 µg/mL (≈ 1.3 µM); in test [3] (setting [7]), 0.5 µg/mL (≈ 0.651 µM); in test [4] (setting [8]), 4 µg/mL (≈ 5.21 µM).
As to `C[C@@H]1S[C@@H]2[C@H](NC(=O)/C(=N\OC(C)(C)C(=O)[O-])c3csc(N)n3)C(=O)N2C(C(=O)O)=C1C[N@+]1(C)[C@@H]2CC[C@H]1C[C@@H](N1C(=O)c3ccc(O)c(O)c3C1=O)C2` [Compound I-38], the MIC came out at 0.063 µg/mL (≈ 0.0804 µM) in test [1] (SR01358, read-out: Minimum Inhibitory Concentration (MIC) K. pneumoniae SR01358); 0.25 µg/mL (≈ 0.319 µM) in test [2] (JMI7, read-out: Minimum Inhibitory Concentration (MIC) A. baumannii JMI:7); 0.25 µg/mL (≈ 0.319 µM) in test [3]; 0.5 µg/mL (≈ 0.638 µM) in test [4] (JMI2346, read-out: Minimum Inhibitory Concentration (MIC) A. baumannii JMI:2346).
In the case of `C[C@@H]1S[C@@H]2[C@H](NC(=O)/C(=N\OC(C)(C)C(=O)[O-])c3csc(N)n3)C(=O)N2C(C(=O)O)=C1C[N+]12CCC(CN3C(=O)c4ccc(O)c(O)c4C3=O)(CC1)CC2` [Compound I-39], the MIC stood at 0.063 µg/mL (≈ 0.0804 µM) in test [1] (setting [5]), 0.125 µg/mL (≈ 0.159 µM) in test [2] (setting [6]), 0.25 µg/mL (≈ 0.319 µM) in test [3] (setting [7]) and 1 µg/mL (≈ 1.28 µM) in test [4] (setting [8]).
The like results for `C[C@@H]1S[C@@H]2[C@H](NC(=O)/C(=N\OC(C)(C)C(=O)[O-])c3csc(N)n3)C(=O)N2C(C(=O)O)=C1C[N+]12CCC(CNC(=O)c3ccc(O)c(O)c3Cl)(CC1)CC2` [Compound I-40] were, in that order, 0.063 µg/mL (≈ 0.0795 µM), 1 µg/mL (≈ 1.26 µM), 0.5 µg/mL (≈ 0.631 µM) and 4 µg/mL (≈ 5.05 µM).
The like results for `C[C@@H]1S[C@@H]2[C@H](NC(=O)/C(=N\OC(C)(C)C(=O)[O-])c3csc(N)n3)C(=O)N2C(C(=O)O)=C1C[N@+]12CCC[C@H]1CN(C(=O)c1ccc(O)c(O)c1Cl)CC2` [Compound I-41] were, in that order, 0.063 µg/mL (≈ 0.0809 µM), 1 µg/mL (≈ 1.28 µM), 1 µg/mL (≈ 1.28 µM) and 4 µg/mL (≈ 5.14 µM).
For the compound `C[C@@H]1S[C@@H]2[C@H](NC(=O)/C(=N\OC(C)(C)C(=O)[O-])c3csc(N)n3)C(=O)N2C(C(=O)O)=C1C[N+]1(CCN2C(=O)c3ccc(O)c(O)c3C2=O)CCCCC1` [Compound I-42], the MIC in test [1] (setting [5]) amounted to 0.063 µg/mL (≈ 0.0816 µM); in test [2] (setting [6]), 0.5 µg/mL (≈ 0.648 µM); in test [3] (setting [7]), 0.5 µg/mL (≈ 0.648 µM); in test [4] (setting [8]), 2 µg/mL (≈ 2.59 µM).
For `C[C@@H]1S[C@@H]2[C@H](NC(=O)/C(=N\OC(C)(C)C(=O)[O-])c3csc(N)n3)C(=O)N2C(C(=O)O)=C1C[N+]1(CCNC(=O)c2ccc(O)c(O)c2Cl)CCCCC1` [Compound I-43], the MIC was 0.063 µg/mL (≈ 0.0807 µM) in test [1] (setting [5]), 1 µg/mL (≈ 1.28 µM) in test [2] (setting [6]), 0.5 µg/mL (≈ 0.641 µM) in test [3] (setting [7]) and 4 µg/mL (≈ 5.13 µM) in test [4] (setting [8]).
The like results for `C[C@@H]1S[C@@H]2[C@H](NC(=O)/C(=N\OC(C)(C)C(=O)[O-])c3csc(N)n3)C(=O)N2C(C(=O)O)=C1C[N+]1(CCN2C(=O)c3ccc(O)c(O)c3C2=O)CCCC1` [Compound I-51] were, in that order, 0.125 µg/mL (≈ 0.165 µM), 2 µg/mL (≈ 2.64 µM), 0.5 µg/mL (≈ 0.66 µM) and 8 µg/mL (≈ 10.6 µM).
With `C[C@@H]1S[C@@H]2[C@H](NC(=O)/C(=N\OC(C)(C)C(=O)[O-])c3csc(N)n3)C(=O)N2C(C(=O)O)=C1C[N+]1(CCNC(=O)c2ccc(O)c(O)c2Cl)CCCC1` [Compound I-52], the MIC in test [1] (setting [5]) was at most 0.031 µg/mL; in test [2] (setting [6]) it was 1 µg/mL (≈ 1.31 µM); in test [3] (setting [7]) it was 0.25 µg/mL (≈ 0.326 µM); in test [4] (setting [8]), 4 µg/mL (≈ 5.22 µM).
For `C[C@H]1S[C@@H]2[C@H](NC(=O)/C(=N\OC(C)(C)C(=O)[O-])c3csc(N)n3)C(=O)N2C(C(=O)O)=C1C[N+]1(CCNC(=O)c2ccc(O)c(O)c2Cl)CCCC1` [Compound I-53] the same measures were 0.25 µg/mL (≈ 0.326 µM), 2 µg/mL (≈ 2.61 µM), 0.25 µg/mL (≈ 0.326 µM) and 4 µg/mL (≈ 5.22 µM).
The like results for `C[C@@H]1S[C@@H]2[C@H](NC(=O)/C(=N\OC(C)(C)C(=O)[O-])c3csc(N)n3)C(=O)N2C(C(=O)O)=C1C[N@+]1(C)[C@@H]2CC[C@H]1C[C@@H](NC(=O)c1ccc(O)c(O)c1Cl)C2` [Compound I-54] were, in that order, at most 0.031 µg/mL, 0.5 µg/mL (≈ 0.631 µM), 0.125 µg/mL (≈ 0.158 µM) and 1 µg/mL (≈ 1.26 µM).
The like results for `C[C@@H]1S[C@@H]2[C@H](NC(=O)/C(=N\OC(C)(C)C(=O)[O-])c3csc(N)n3)C(=O)N2C(C(=O)[O-])=C1C[N+]12CCC(CNC(=O)c3cc(O)c(O)c(Cl)c3)(CC1)CC2.[Na+]` [Compound I-60] were, in that order, at most 0.031 µg/mL, 1 µg/mL, 1 µg/mL and 4 µg/mL.
As to `C[C@@H]1S[C@@H]2[C@H](NC(=O)/C(=N\OC(C)(C)C(=O)[O-])c3csc(N)n3)C(=O)N2C(C(=O)[O-])=C1C[N+]1(CCNC(=O)c2cc(O)c(O)c(Cl)c2)CCCC1.[Na+]` [Compound I-61], the MIC in test [1] (setting [5]) came to 0.063 µg/mL; in test [2] (setting [6]) it was 2 µg/mL; in test [3] (setting [7]) it was 2 µg/mL; in test [4] (setting [8]), 16 µg/mL.
In the case of `C[C@@H]1S[C@@H]2[C@H](NC(=O)/C(=N\OC(C)(C)C(=O)[O-])c3csc(N)n3)C(=O)N2C(C(=O)[O-])=C1C[N+]12CCC(CC1)N(C(=O)c1ccc(O)c(O)c1Cl)CC2.[Na+]` [Compound I-62], the MIC in test [1] (setting [5]) is at most 0.031 µg/mL; in test [2] (setting [6]) it was 0.5 µg/mL; in test [3] (setting [7]), 0.063 µg/mL; in test [4] (setting [8]), 2 µg/mL.
For the compound `C[C@@H]1S[C@@H]2[C@H](NC(=O)/C(=N\OC(C)(C)C(=O)[O-])c3csc(N)n3)C(=O)N2C(C(=O)[O-])=C1C[N+]12CCC[C@H]1CN(C(=O)c1cc(O)c(O)c(Cl)c1)CC2.[Na+]` (some centres unmarked) [Compound I-64], the MIC in test [1] (setting [5]) was at most 0.031 µg/mL; in test [2] (setting [6]), 2 µg/mL; in test [3] (setting [7]) it was 0.125 µg/mL; in test [4] (setting [8]), 4 µg/mL.
For `C[C@@H]1S[C@@H]2[C@H](NC(=O)/C(=N\OC(C)(C)C(=O)[O-])c3csc(N)n3)C(=O)N2C(C(=O)[O-])=C1C[N+]12CCC(CC1)N(C(=O)c1cc(O)c(O)c(Cl)c1)CC2.[Na+]` [Compound I-65] the same measures were at most 0.031 µg/mL, 0.5 µg/mL, 0.125 µg/mL and 2 µg/mL.
Take `C[C@@H]1S[C@@H]2[C@H](NC(=O)/C(=N\OC(C)(C)C(=O)[O-])c3csc(N)n3)C(=O)N2C(C(=O)[O-])=C1C[N+]1(C)[C@@H]2CC[C@H]1C[C@@H](NC(=O)c1cc(O)c(O)c(Cl)c1)C2.[Na+]` (some centres unmarked) [Compound I-66]: the MIC is at most 0.031 µg/mL in test [1] (setting [5]), 0.25 µg/mL in test [2] (setting [6]), 0.063 µg/mL in test [3] (setting [7]) and 1 µg/mL in test [4] (setting [8]).
For `C[C@@H]1S[C@@H]2[C@H](NC(=O)/C(=N\OC(C)(C)C(=O)[O-])c3csc(N)n3)C(=O)N2C(C(=O)[O-])=C1C[N+]12CCC(CC1)N(C(=O)c1cc(O)c(O)c(F)c1)CC2.[Na+]` [Compound I-67], the MIC was at most 0.031 µg/mL in test [1] (setting [5]), 1 µg/mL in test [2] (setting [6]), 0.25 µg/mL in test [3] (setting [7]) and 2 µg/mL in test [4] (setting [8]).
Regarding `C[C@@H]1S[C@@H]2[C@H](NC(=O)/C(=N\OC(C)(C)C(=O)[O-])c3csc(N)n3)C(=O)N2C(C(=O)[O-])=C1C[N+]12CCC[C@H]1CN(C(=O)c1cc(O)c(O)c(F)c1)CC2.[Na+]` (some centres unmarked) [Compound I-68], the MIC in test [1] (setting [5]) is at most 0.031 µg/mL; in test [2] (setting [6]) it was 2 µg/mL; in test [3] (setting [7]), 0.5 µg/mL; in test [4] (setting [8]) it was 8 µg/mL.
`C[C@@H]1S[C@@H]2[C@H](NC(=O)/C(=N\OC(C)(C)C(=O)[O-])c3csc(N)n3)C(=O)N2C(C(=O)[O-])=C1C[N+]1(C)C[C@H]2CN(C(=O)c3cc(O)c(O)c(F)c3)C[C@H]2C1.[Na+]` (some centres unmarked) [Compound I-69]: the MIC is at most 0.031 µg/mL in test [1] (setting [5]), 1 µg/mL in test [2] (setting [6]), 0.25 µg/mL in test [3] (setting [7]) and 8 µg/mL in test [4] (setting [8]).
